Measured values taken from ChEMBL document CHEMBL4417631, “Oral peptide inhibitors of interleukin-23 receptor and their use to treat inflammatory bowel diseases” (2017).
Where a SMILES comes first, the peptide text is derived from it.

Target: T1, Interleukin-23 receptor (Homo sapiens, UniProt Q5VWK5)
T1 sequence (Q5VWK5 whole entry): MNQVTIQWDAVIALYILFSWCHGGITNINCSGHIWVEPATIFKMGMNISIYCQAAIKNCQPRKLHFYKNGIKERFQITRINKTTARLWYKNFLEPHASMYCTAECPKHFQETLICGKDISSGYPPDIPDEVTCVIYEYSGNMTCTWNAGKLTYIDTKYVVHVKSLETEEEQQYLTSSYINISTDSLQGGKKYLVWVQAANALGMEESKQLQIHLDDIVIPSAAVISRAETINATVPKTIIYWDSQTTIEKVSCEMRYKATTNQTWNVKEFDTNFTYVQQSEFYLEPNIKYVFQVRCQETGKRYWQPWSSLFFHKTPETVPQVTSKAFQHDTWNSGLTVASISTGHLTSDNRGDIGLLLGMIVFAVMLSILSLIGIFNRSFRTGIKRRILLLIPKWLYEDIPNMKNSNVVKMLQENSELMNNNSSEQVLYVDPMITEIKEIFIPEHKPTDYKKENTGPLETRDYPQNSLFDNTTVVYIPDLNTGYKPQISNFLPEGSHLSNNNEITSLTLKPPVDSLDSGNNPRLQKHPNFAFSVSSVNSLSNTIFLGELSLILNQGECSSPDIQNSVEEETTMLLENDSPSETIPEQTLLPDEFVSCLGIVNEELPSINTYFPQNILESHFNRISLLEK
Experiment: Inhibition of interleukin-23 binding to human interleukin-23 receptor incubated for 2 hrs by competitive binding ELISA

IC50 [nM]	SMILES
> 1000	CC(C)[C@H](NC(=O)C[C@H](Cc1c[nH]c2ccccc12)NC(=O)[C@H](CC(=O)O)NC(=O)[C@H](C)NC(=O)[C@@H](N)CS)C(=O)N[C@@H](CS)C(=O)N[C@@H](Cc1ccc(O)cc1)C(=O)N[C@@H](Cc1c[nH]c2ccccc12)C(=O)N[C@@H](Cc1cnc[nH]1)C(=O)N[C@H](C(=O)N[C@@H](Cc1ccccc1)C(=O)NCC(N)=O)[C@@H](C)O
6000	CC(=O)N[C@@H](CS)C(=O)N[C@@H](C)C(=O)N[C@@H](CC(=O)O)C(=O)N[C@@H](Cc1c[nH]c2ccccc12)C(=O)N[C@H](C(=O)N[C@@H](CS)C(=O)N[C@@H](Cc1ccc(O)cc1)C(=O)N[C@H](CC(=O)N[C@@H](CCCN)C(=O)N[C@@H](CN)C(=O)N[C@@H](Cc1ccccc1)C(=O)NCC(=O)NCCOCC(=O)N[C@H](CCCCN)C(N)=O)Cc1c[nH]c2ccccc12)C(C)C
> 3000	CC(=O)NCCCC[C@H](NC(=O)[C@](C)(CCCCN)NC(=O)NC(=O)[C@H](Cc1ccc(OCCN)cc1)NC(=O)[C@@H]1CSCC[C@H](NC(C)=O)C(=O)N[C@@H](CCC(N)=O)C(=O)N[C@@H]([C@@H](C)O)C(=O)N[C@@H](Cc2c[nH]c3ccccc23)C(=O)N[C@@H](CCC(N)=O)C(=O)N1)C(=O)N[C@@H](CC(N)=O)C(=O)NCC(N)=O
> 1000	CC(=O)N[C@@H](CS)C(=O)N[C@@H](CCC(N)=O)C(=O)N[C@H](C(=O)N[C@@H](Cc1c[nH]c2ccccc12)C(=O)N[C@@H](CCC(N)=O)C(=O)N[C@@H](CS)C(=O)N[C@@H](Cc1ccc(O)cc1)C(=O)N[C@@H](Cc1c[nH]c2ccccc12)C(=O)N[C@@H](CCCNC(=N)N)C(=O)N[C@H](CCC(=O)O)C(=O)N[C@@H](CC(N)=O)C(=O)NCC(=O)NCCOCC(=O)N[C@H](CCCCN)C(N)=O)[C@@H](C)O
< 500	CC(=O)N[C@@H](CS)C(=O)N[C@@H](C)C(=O)N[C@@H](CC(=O)O)C(=O)N[C@@H](Cc1c[nH]c2ccccc12)C(=O)N[C@H](C(=O)N[C@@H](CS)C(=O)N[C@@H](Cc1ccc(O)cc1)C(=O)N[C@@H](Cc1c[nH]c2ccccc12)C(=O)N[C@@H](Cc1cnc[nH]1)C(=O)N[C@H](C(=O)N[C@@H](Cc1ccccc1)C(=O)NCC(=O)NCCC(=O)N[C@H](CCCCN)C(=O)O)[C@@H](C)O)C(C)C
100 to 1000	CC(=O)N[C@H]1CCSC[C@@H](C(=O)N[C@@H](Cc2ccc(C(N)=O)cc2)C(=O)N[C@@H](Cc2ccc3ccccc3c2)C(=O)NC(C)(C)C(=O)N[C@@H](CCC(=O)O)C(=O)N[C@@H](CC(N)=O)C(=O)NCC(N)=O)NC(=O)[C@H](CCC(N)=O)NC(=O)[C@H](Cc2c[nH]c3ccccc23)NC(=O)[C@H]([C@@H](C)O)NC(=O)[C@H](CCC(N)=O)NC1=O
> 1000	CC(=O)N[C@@H](CS)C(=O)N[C@@H](CCC(N)=O)C(=O)N[C@H](C(=O)N[C@@H](Cc1c[nH]c2ccccc12)C(=O)N[C@@H](CCC(N)=O)C(=O)N[C@@H](CS)C(=O)N[C@@H](Cc1ccc(O)cc1)C(=O)N[C@@H](Cc1c[nH]c2ccccc12)C(=O)N[C@@H](CCCNC(=N)N)C(=O)N(C)[C@@H](CCCNC(=N)N)C(=O)N[C@@H](CC(N)=O)C(=O)NCC(=O)NCCOCC(=O)N[C@H](CCCCN)C(N)=O)[C@@H](C)O
> 30000	CC(=O)N[C@@H](CS)C(=O)N[C@@H](CCC(N)=O)C(=O)N[C@H](C(=O)N[C@@H](Cc1c[nH]c2ccccc12)C(=O)N[C@@H](CCC(N)=O)C(=O)N[C@@H](CS)C(=O)N[C@@H](CCC(=O)O)C(=O)N[C@@H](Cc1c[nH]c2ccccc12)C(=O)N[C@@H](CCC(C)C)C(=O)N[C@@H](CCC(=O)O)C(=O)N[C@@H](CC(N)=O)C(=O)NCC(N)=O)[C@@H](C)O
> 1000	CC(C)[C@H](NC(=O)[C@H](Cc1c[nH]c2ccccc12)NC(=O)[C@H](CC(=O)O)NC(=O)[C@H](C)NC(=O)[C@@H](N)CS)C(=O)N[C@@H](CS)C(=O)N[C@@H](Cc1ccc(O)cc1)C(=O)N[C@@H](Cc1c[nH]c2ccccc12)C(=O)N[C@@H](Cc1cnc[nH]1)C(=O)N[C@H](C(N)=O)[C@@H](C)O
> 1000	CC(=O)N[C@@H](CS)C(=O)N[C@@H](C)C(=O)N[C@@H](CC(=O)O)C(=O)N[C@@H](Cc1c[nH]c2ccccc12)C(=O)N[C@H](C(=O)N[C@@H](CS)C(=O)N[C@@H](Cc1ccc(O)cc1)C(=O)N[C@@H](Cc1c[nH]c2ccccc12)C(=O)N(C)[C@@H](Cc1cnc[nH]1)C(=O)N[C@H](C(=O)N[C@@H](Cc1ccccc1)C(=O)NCC(=O)NCCOCC(=O)N[C@H](CCCCN)C(N)=O)[C@@H](C)O)C(C)C
> 10000	CC(=O)NCCCC[C@H](NC(=O)[C@](C)(CCCCN)NC(=O)[C@H](Cc1ccc2ccccc2c1)NC(=O)[C@H](Cc1ccc(-c2ccccc2)cc1)NC(=O)[C@@H](NC(=O)[C@H](CCC(N)=O)NC(=O)[C@H](Cc1c[nH]c2ccccc12)NC(=O)[C@@H](NC(=O)[C@H](CCC(N)=O)NC(=O)[C@@H](NC(C)=O)C(C)(C)S)[C@@H](C)O)C(C)(C)S)C(=O)N[C@@H](CC(N)=O)C(=O)NCC(N)=O
1000 to 10000	CC(C)[C@H](NC(=O)[C@H](Cc1c[nH]c2ccccc12)NC(=O)[C@H](CC(=O)O)NC(=O)[C@H](C)NC(=O)[C@@H](N)CS)C(=O)N[C@@H](CS)C(=O)N[C@@H](Cc1ccc(O)cc1)C(=O)N[C@@H](Cc1c[nH]c2ccccc12)C(=O)N[C@@H](Cc1cnc[nH]1)C(=O)N[C@H](C(=O)N[C@@H](Cc1ccccc1)C(=O)NCC(=O)N[C@@H](CCCCNC(=O)COCC(=O)NCCCC[C@H](NC(=O)CNC(=O)[C@H](Cc1ccccc1)NC(=O)[C@@H](NC(=O)[C@H](Cc1cnc[nH]1)NC(=O)[C@H](Cc1c[nH]c2ccccc12)NC(=O)[C@H](Cc1ccc(O)cc1)NC(=O)[C@H](CS)NC(=O)[C@@H](NC(=O)[C@H](Cc1c[nH]c2ccccc12)NC(=O)[C@H](CC(=O)O)NC(=O)[C@H](C)NC(=O)[C@@H](N)CS)C(C)C)[C@@H](C)O)C(=O)O)C(=O)O)[C@@H](C)O
> 30000	CC(=O)N[C@@H](CS)C(=O)N[C@@H](CCC(N)=O)C(=O)N[C@H](C(=O)N[C@@H](Cc1c[nH]c2ccccc12)C(=O)N[C@@H](CCC(N)=O)C(=O)N[C@@H](CS)C(=O)N[C@@H](Cc1ccc(O)cc1)C(=O)N[C@@](C)(Cc1c[nH]c2ccccc12)C(=O)N[C@@H](CCC(C)C)C(=O)N[C@@H](CCC(=O)O)C(=O)N[C@@H](CCC(N)=O)C(=O)NCC(N)=O)[C@@H](C)O
> 1000	CC(=O)N[C@@H](CS)C(=O)N[C@@H](CCC(N)=O)C(=O)N[C@H](C(=O)N[C@@H](Cc1c[nH]c2ccccc12)C(=O)N[C@@H](CCC(N)=O)C(=O)N[C@@H](CS)C(=O)N[C@@H](Cc1ccc(O)cc1)C(=O)N[C@@H](Cc1c[nH]c2ccccc12)C(=O)N[C@@H](CCCNC(=N)N)C(=O)N(C)CC(=O)N[C@@H](CC(N)=O)C(=O)NCC(=O)NCCOCC(=O)N[C@H](CCCCN)C(N)=O)[C@@H](C)O
< 500	CC(=O)N[C@@H](CS)C(=O)N[C@@H](C)C(=O)N[C@@H](CC(=O)O)C(=O)N[C@@H](Cc1c[nH]c2ccccc12)C(=O)N[C@H](C(=O)N[C@@H](CS)C(=O)N[C@@H](Cc1ccc(O)cc1)C(=O)N[C@@H](Cc1c[nH]c2ccccc12)C(=O)N[C@@H](Cc1cnc[nH]1)C(=O)N[C@H](C(=O)N[C@@H](Cc1ccccc1)C(=O)NCC(=O)N[C@@H](C)C(=O)N[C@@H](C)C(=O)N[C@H](CCCCN)C(=O)O)[C@@H](C)O)C(C)C
> 1000	C[C@H](NC(=O)[C@@H](N)CS)C(=O)N[C@@H](CC(=O)O)C(=O)N[C@@H](Cc1c[nH]c2ccccc12)C(=O)N[C@@H](CS)C(=O)N[C@@H](CS)C(=O)N[C@@H](Cc1ccc(O)cc1)C(=O)N[C@@H](Cc1c[nH]c2ccccc12)C(=O)N[C@@H](CS)C(=O)N[C@H](C(=O)N[C@@H](Cc1ccccc1)C(=O)NCC(N)=O)[C@@H](C)O (H-CADWCCYWCTFG-NH2)
> 1000	CC(=O)N[C@@H](CS)C(=O)N[C@@H](C)C(=O)N[C@@H](CC(=O)O)C(=O)N[C@@H](Cc1c[nH]c2ccccc12)C(=O)N[C@H](C(=O)N[C@@H](CS)C(=O)N[C@@H](Cc1ccc(O)cc1)C(=O)N[C@@H](Cc1c[nH]c2ccccc12)C(=O)N[C@@H](Cc1cnc[nH]1)C(=O)N[C@H](C(=O)N[C@@H](Cc1ccccc1)C(=O)NCC(N)=O)[C@@H](C)O)C(C)C
500 to 1000	CSCC[C@H](NC(=O)[C@H](Cc1c[nH]c2ccccc12)NC(=O)[C@H](CC(=O)O)NC(=O)[C@H](C)NC(=O)[C@@H](N)CS)C(=O)N[C@@H](CS)C(=O)N[C@@H](Cc1ccc(O)cc1)C(=O)N[C@@H](Cc1c[nH]c2ccccc12)C(=O)N[C@@H](Cc1cnc[nH]1)C(=O)N[C@@H](CCC(=O)O)C(=O)N[C@@H](Cc1ccc(O)cc1)C(=O)NCC(N)=O (H-CADWMCYWHEYG-NH2)
80	CC(=O)N[C@@H](CS)C(=O)N(C)[C@@H](CCCCN)C(=O)N[C@H](C(=O)N[C@@H](Cc1c[nH]c2ccccc12)C(=O)N[C@@H](CCC(N)=O)C(=O)N[C@@H](CS)C(=O)N[C@@H](Cc1ccc(O)cc1)C(=O)N[C@@H](Cc1c[nH]c2ccccc12)C(=O)N[C@@H](CCCNC(=N)N)C(=O)N[C@H](C(=O)N[C@@H](Cc1ccccc1)C(=O)NCC(=O)NCCOCC(=O)N[C@H](CCCCN)C(N)=O)C(C)C)[C@@H](C)O
< 500	CC(=O)N[C@@H](CS)C(=O)N[C@@H](CCCNC(=N)N)C(=O)N[C@H](C(=O)N[C@@H](Cc1c[nH]c2ccccc12)C(=O)N[C@@H](CCC(=O)O)C(=O)N[C@@H](CS)C(=O)N[C@@H](Cc1ccc(O)cc1)C(=O)N[C@@H](Cc1c[nH]c2ccccc12)C(=O)N[C@@H](Cc1cnc[nH]1)C(=O)N[C@@H](CCC(=O)O)C(=O)N[C@@H](Cc1ccc(O)cc1)C(=O)NCC(N)=O)[C@@H](C)O (Ac-CRTWECYWHEYG-NH2)
